Target: T1, rat NHE-3 (Rattus norvegicus, UniProt P26433)
T1 construct: expressed in transfected cells; host or cells: Opossum kidney (OK) cells (ATCC), electroporated
Assay: Cell-based assay of NHE-3 activity (Pharmacological Test Example 1)
Conditions: OK cells expressing rat NHE-3, 0-30 uM test compound, 5 uM EIPA; for IC50: read-out: rat NHE-3 Average pIC50 (converted)
Method: Rat NHE-3-mediated Na^+-dependent H^+ antiport was measured using a modification of the pH sensitive dye method originally reported by Tsien (Proc. Natl. Acad. Sci. USA. (1984) 81(23): 7436-7440). Opossum kidney (OK) cells were obtained from the ATCC and propagated per their instructions. The rat NHE-3 gene was introduced into OK cells via electroporation, seeded into 96 well plates and grown overnight. Medium was aspirated from the wells, cells were washed twice with NaCl-HEPES buffer (100 mM NaCl, 50 mM HEPES, 10 mM glucose, 5 mM KCl, 2 mM CaCl2, 1 mM MgCl2, pH 7.4), then incubated for 30 min at room temperature with NH4Cl-HEPES buffer (20 mM NH4Cl, 80 mM NaCl, 50 mM HEPES, 5 mM KCl, 2 mM CaCl2), 1 mM MgCl2, pH 7.4) containing 5 uM BCECF-AM (Invitrogen). Cells were washed twice with Ammonium free, Nat-free HEPES (100 mM choline, 50 mM HEPES, 10 mM glucose, 5 mM KCl, 2 mM CaCl2), 1 mM MgCl2, pH 7.4) and incubated in the same buffer for 10 minutes at room temperature to lower intracellular pH. […] Initial rates were plotted as the average 3-6 replicates, and pIC50 values were estimated using GraphPad Prism.

T1 sequence (P26433 29-831): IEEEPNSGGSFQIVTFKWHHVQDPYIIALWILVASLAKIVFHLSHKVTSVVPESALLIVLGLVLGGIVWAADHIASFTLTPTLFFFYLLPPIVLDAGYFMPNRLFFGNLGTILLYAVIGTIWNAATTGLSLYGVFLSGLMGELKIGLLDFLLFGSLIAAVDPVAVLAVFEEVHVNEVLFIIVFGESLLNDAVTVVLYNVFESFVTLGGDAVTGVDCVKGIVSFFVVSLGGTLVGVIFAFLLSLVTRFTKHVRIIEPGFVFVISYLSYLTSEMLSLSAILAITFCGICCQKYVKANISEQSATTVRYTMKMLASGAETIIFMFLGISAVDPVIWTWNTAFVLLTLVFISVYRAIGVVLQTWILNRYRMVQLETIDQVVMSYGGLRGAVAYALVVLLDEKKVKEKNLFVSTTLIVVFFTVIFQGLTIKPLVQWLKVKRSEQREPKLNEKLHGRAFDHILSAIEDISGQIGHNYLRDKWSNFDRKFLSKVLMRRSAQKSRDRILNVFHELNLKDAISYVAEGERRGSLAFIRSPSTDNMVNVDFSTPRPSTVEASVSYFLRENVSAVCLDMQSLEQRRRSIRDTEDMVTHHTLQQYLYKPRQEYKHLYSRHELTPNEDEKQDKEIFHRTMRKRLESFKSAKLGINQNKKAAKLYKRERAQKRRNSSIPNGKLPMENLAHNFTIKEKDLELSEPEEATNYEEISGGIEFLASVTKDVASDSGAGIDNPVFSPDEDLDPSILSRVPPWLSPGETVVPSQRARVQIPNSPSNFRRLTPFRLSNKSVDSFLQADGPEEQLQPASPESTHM

SMILES | IC50 [nM] | rat NHE-3 Average pIC50
CN1Cc2c(Cl)cc(Cl)cc2[C@H](c2ccc(S(=O)(=O)NCCOCCOCCOCCNC(=O)NCCCCNC(=O)NCCOCCOCCOCCNS(=O)(=O)c3ccc([C@@H]4CN(C)Cc5c(Cl)cc(Cl)cc54)cc3)cc2)C1 (single isomer, unassigned) [Example 251, (S or R)—N,N′-(13,20-dioxo-3,6,9,24,27,30-hexaoxa-12,14,19,21-tetraazadotriacontane-1,32-diyl)bis(4-((S or R)-6,8-dichloro-2-methyl-1,2,3,4-tetrahydroisoquinolin-4-yl)benzenesulfonamide)] | < 100 | 
CN1Cc2c(Cl)cc(Cl)cc2C(c2cccc(S(=O)(=O)NCCOCCOCCOCCN)c2)C1 (stereo not shown) [Example 28, N-(2-(2-(2-(2-aminoethoxy)ethoxy)ethoxy)ethyl)-3-(6,8-dichloro-2-methyl-1,2,3,4-tetrahydroisoquinolin-4-yl)benzenesulfonamide] |  | 6 to 7
CN1Cc2c(Cl)cc(Cl)cc2C(c2cccc(S(=O)(=O)NCCOCCOCCOCCNC(=O)CCCCCCC(=O)NCCOCCOCCOCCNS(=O)(=O)c3cccc(C4CN(C)Cc5c(Cl)cc(Cl)cc54)c3)c2)C1 (stereo not shown) [Example 29, N1,N8-bis(2-(2-(2-(2-(3-(6,8-dichloro-2-methyl-1,2,3,4-tetrahydroisoquinolin-4-yl)phenylsulfonamido)ethoxy)ethoxy)ethoxy)ethyl)octanediamide] |  | 6 to 7
C/C(=C\c1cc(F)c(Oc2ccc(S(=O)(=O)NCCOCCOCCOCCN)cc2)c(F)c1)C(=O)N=C(N)N [Example 45, (E)-3-(4-(4-(N-(2-(2-(2-(2-aminoethoxy)ethoxy)ethoxy)ethyl)sulfamoyl)phenoxy)-3,5-difluorophenyl)-N-(diaminomethylene)-2-methylacrylamide] |  | 6 to 7
C/C(=C\c1cc(F)c(Oc2ccc(S(=O)(=O)NCCOCCOCCOCCNC(=O)NCCOCCOCCOCCNS(=O)(=O)c3ccc(Oc4c(F)cc(/C=C(\C)C(=O)N=C(N)N)cc4F)cc3)cc2)c(F)c1)C(=O)N=C(N)N [Example 46, N,N′-(13-oxo-3,6,9,17,20,23-hexaoxa-12,14-diazapentacosane-1,25-diyl)bis[(E)-N-(diaminomethylene)-3-(3,5-difluoro-4-(4-sulfamoylphenoxy)phenyl)-2-methylacrylamide]] | 100 to 1000 | 
N=C(N)Nc1nc(-c2cccc(N3CCN(CCC(=O)O)CC3)c2)c2cc(Cl)ccc2n1 [Example 64, 3-(4-(3-(6-chloro-2-(diaminomethyleneamino)quinazolin-4-yl)phenyl)piperazin-1-yl)propanoic acid] |  | 5 to 6
N=C(N)Nc1nc(-c2cccc(N3CCN(CCCN)CC3)c2)c2cc(Cl)ccc2n1 [Example 65, 1-(4-(3-(4-(3-aminopropyl)piperazin-1-yl)phenyl)-6-chloroquinazolin-2-yl)guanidine] |  | 6 to 7
N=C(N)N1CCN(c2ccc(-c3nc(N=C(N)N)nc4ccc(Cl)cc34)cc2)CC1 [Example 66, 4-(4-(6-chloro-2-(diaminomethyleneamino)quinazolin-4-yl)phenyl)piperazine-1-carboximidamide] |  | 6 to 7
NC(N)=NCCCN1CCN(c2cccc(-c3nc(N=C(N)N)nc4ccc(Cl)cc34)c2)CC1 [Example 67, 2-(4-(3-(4-(3-guanidinopropyl)piperazin-1-yl)phenyl)-6-chloroquinazolin-2-yl)guanidine] |  | 6 to 7
CN1Cc2c(Cl)cc(Cl)cc2C(c2cccc(S(=O)(=O)NCCOCCOCCOCCn3cc(COCc4cn(CCOCCOCCOCCNS(=O)(=O)c5cccc(C6CN(C)Cc7c(Cl)cc(Cl)cc76)c5)nn4)nn3)c2)C1 (stereo not shown) [Example 81, N,N′-(2,2′-(2,2-(2,2′-(2,2′-(4,4′-oxybis(methylene)bis(1H-1,2,3-triazole-4,1-diyl))bis(ethane-2,1-diyl))bis(oxy)bis(ethane-2,1-diyl))bis(oxy)bis(ethane-2,1-diyl))bis(oxy)bis(ethane-2,1-diyl))bis(3-(6,8-dichloro-2-methyl-1,2,3,4-tetrahydroisoquinolin-4-yl)benzenesulfonamide)] | < 100 | 
CN1Cc2c(Cl)cc(Cl)cc2C(c2cccc(S(=O)(=O)NCCOCCOCCOCCNC(=O)CCOCCOCCOCCOCCOCCOCCOCCOCCOCCC(=O)NCCOCCOCCOCCNS(=O)(=O)c3cccc(C4CN(C)Cc5c(Cl)cc(Cl)cc54)c3)c2)C1 (stereo not shown) [Example 97, N1,N31-bis(2-(2-(2-(2-(3-(6,8-dichloro-2-methyl-1,2,3,4-tetrahydroisoquinolin-4-yl)phenylsulfonamido)ethoxy)ethoxy)ethoxy)ethyl)-4,7,10,13,16,19,22,25,28-nonaoxahentriacontane-1,31-diamide] |  | 6 to 7
CN1Cc2c(Cl)cc(Cl)cc2C(c2ccc(S(=O)(=O)NCCOCCOCCOCCNC(=O)CCOCCOCCOCCOCCOCCOCCOCCOCCOCCC(=O)NCCOCCOCCOCCNS(=O)(=O)c3ccc(C4CN(C)Cc5c(Cl)cc(Cl)cc54)cc3)cc2)C1 (stereo not shown) [Example 98, N1,N31-bis(2-(2-(2-(2-(4-(6,8-dichloro-2-methyl-1,2,3,4-tetrahydroisoquinolin-4-yl)phenylsulfonamido)ethoxy)ethoxy)ethoxy)ethyl)-4,7,10,13,16,19,22,25,28-nonaoxahentriacontane-1,31-diamide] |  | >7
CN1Cc2c(Cl)cc(Cl)cc2C(c2cccc(S(=O)(=O)NCCOCCOCCOCCNC(=O)NCCOCCOCCOCCNS(=O)(=O)c3cccc(C4CN(C)Cc5c(Cl)cc(Cl)cc54)c3)c2)C1 (stereo not shown) [Example 100, N,N′-(13-oxo-3,6,9,17,20,23-hexaoxa-12,14-diazapentacosane-1,25-diyl)bis(3-(6,8-dichloro-2-methyl-1,2,3,4-tetrahydroisoquinolin-4-yl)benzenesulfonamide)] |  | 6 to 7
C/C(=C\c1cc(F)c(Oc2ccc(S(=O)(=O)NCCOCCOCCOCCNC(=O)CCOCCOCCOCCOCCOCCOCCOCCOCCOCCC(=O)NCCOCCOCCOCCNS(=O)(=O)c3ccc(Oc4c(F)cc(/C=C(\C)C(=O)N=C(N)N)cc4F)cc3)cc2)c(F)c1)C(=O)N=C(N)N [Example 102, N1,N31-bis(2-(2-(2-(2-(4-(4-((E)-3 (diaminomethyleneamino)-2-methyl-3-oxoprop-1-enyl)-2,6-difluorophenoxy)phenylsulfonamido)ethoxy)ethoxy)ethoxy)ethyl)-4,7,10,13,16,19,22,25,28-nonaoxahentriacontane-1,31-diamide] | 100 to 1000 | 
CN1Cc2c(Cl)cc(Cl)cc2C(c2ccc(S(=O)(=O)NCCOCCOCCOCCNC(=O)NCCOCCOCCOCCNS(=O)(=O)c3ccc(C4CN(C)Cc5c(Cl)cc(Cl)cc54)cc3)cc2)C1 (stereo not shown) [Example 103, N,N′-(13-oxo-3,6,9,17,20,23-hexaoxa-12,14-diazapentacosane-1,25-diyl)bis(4-(6,8-dichloro-2-methyl-1,2,3,4-tetrahydroisoquinolin-4-yl)benzenesulfonamide)] |  | >7
C/C(=C\c1cc(F)c(Oc2ccc(S(=O)(=O)NCCOCCOCCOCCOCCOCCOCCNC(=O)C(O)C(O)C(=O)NCCOCCOCCOCCOCCOCCOCCNS(=O)(=O)c3ccc(Oc4c(F)cc(/C=C(\C)C(=O)N=C(N)N)cc4F)cc3)cc2)c(F)c1)C(=O)N=C(N)N (stereo not shown) [Example 104, N1,N4-bis(20-(4-(4-((E)-3-(diaminomethyleneamino)-2-methyl-3-oxoprop-1-enyl)-2,6-difluorophenoxy)phenylsulfonamido)-3,6,9,12,15,18-hexaoxaicosyl)-2,3-dihydroxysuccinamide] |  | 6 to 7
